Patent US8198446B2, “Crystalline micropowder particles” (Toray Industries, Inc., priority 2007, dated 2012)
Values joined by “and” are separate entries in the source; they are usually repeats but may differ in a detail not shown here. Equal entries are not always repeated.

Key:
Type in all cases: physicochemical
[1] = Check of crystalline state and measurement of degree of crystallinity by powder X-ray diffraction; details: for Degree of Crystallinity: powder X-ray diffraction, Xc=(Sc/(Sc+Sa))×100
Experimental: The degree of crystallinity of the crystalline finely-ground particles according to the present invention is calculated from the integrated intensity ratio of crystalline peaks and amorphous halo which are extracted from an X-ray diffraction pattern obtained by powder X-ray diffraction measurement.
The powder X-ray diffraction measurement may be carried out by using, for example, a powder X-ray diffractometer (2200/RINT Ultima+PC) manufactured by Rigaku as described in Evaluation 2 of the present invention. In preparation of a measurement sample, 100 mg of a sample material is filled in a glass sample plate (0.2 mm depth) in non-destructive condition, and the surface of the sample material is leveled out using a glass plate to obtain a measurement sample. An example of the measurement condition is as follows, which was used in the present invention.
The degree of crystallinity may be calculated by a known analysis method using diffraction patterns of a sample material and sample plate alone (without a sample material) and a difference pattern thereof. For example, using a powder X-ray diffraction pattern analysis software JADE5.0 produced by MDI, which is a commercially available analysis software, a degree of crystallinity may be calculated as follows.
• (1) A difference pattern of the diffraction patterns of a sample material and sample plate alone is smoothed (Savitzky-Goray filter: 19 points). • (2) For a display area of the difference pattern, the x-axis: diffraction angle (2θ) is set between 2 deg and 90 deg, and the y-axis: diffraction intensity (Counts) is set between 0 and 500. • (3) Points are set at diffraction angles of […], 65 and 90 deg, respectively, and a straight line parallel to the x-axis is drawn such that the line is contact with the difference diffraction pattern at a range of 65 deg to 90 deg. The area below the line is determined as a background. • (4) The background is subtracted. • (5) An integrated intensity at a range of 4 deg to 60 deg is calculated (which corresponds to a sum of the integrated intensity of crystalline peaks and an amorphous halo: Sc+Sa) • (6) Points are set at diffraction angles of 2, 7, 18, 26, 30, 35, 59, 65 and 90 deg, respectively. At 2, 65 and 90 deg, the diffraction intensity is set as 0, and at 7, 18, 26, 30, 35 and 59 deg, an approximation by a cubic spline is made such that the approximation formula is in contact with the difference pattern obtained after the subtraction of the background, thereby estimating an amorphous halo. • (7) The amorphous halo is subtracted. • (8) The integrated intensity at a range of 4 deg to 60 deg is calculated (which corresponds to the integrated intensity of the crystalline peaks: Sc). • (9) A degree of crystallinity is calculated according to the following equation. Xc=(Sc/(Sc+Sa))×100 Equation • Xc: Degree of crystallinity (%) • Sc: Integrated intensity of the crystalline peaks • Sa: Integrated intensity of the amorphous halo
For check of the crystalline state and measurement of the degree of crystallinity, powder X-ray diffraction measurement was carried out using a powder X-ray diffraction analyzer (2200/RINT Ultima+PC) manufactured by Rigaku.

[2] = Measurement of particle diameter distribution (laser diffraction, dry measurement, Mastersizer 2000); details: for Particle Diameter Distribution D50 / Particle Diameter Distribution D90: dry measurement, volume basis
Experimental: In the present invention, D50 and D90 are indices for defining particle diameter distribution. Particle diameter distribution is usually called particle size distribution. Particles are divided into groups along with their size with appropriate intervals, and weight (volume) or particle number of the particles belonging to each group is measured to obtain the particle number (frequency) of each group. Taking the particle number (frequency) along the ordinate and taking the particle diameter along the abscissa, a particle diameter distribution is shown as a histogram, frequency curve, cumulative curve or the like. In the present invention, frequency was calculated based on volume. In the particle diameter distribution obtained in such a manner, D50 means the particle diameter at the point where the volume which is cumulatively measured from smaller particles reaches 50%, that is, the point where the cumulative frequency of the volume distribution reaches 50%. D90 means the particle diameter at the point where the volume which is cumulatively measured from smaller particles reaches 90%, that is, the point where the cumulative frequency of the volume distribution reaches 90%. Cumulative frequency (%) of particles which have a smaller diameter than a specified particle diameter can also be calculated from such a distribution chart.
Measurement of the particle diameter distribution of the crystalline finely-ground particles according to the present invention may be carried out with a commercially available apparatus using laser diffraction/scattering based on Mie Theory. For example, the measurement is carried out using a commercially available apparatus such as Malvern (registered trademark) Mastersizer Laser Diffraction Analyzer (Malvern Instruments Ltd). This analyzer irradiates He—Ne laser beam and blue light-emitting diode on particles to obtain a light scattering pattern which occurs on a detector by the irradiation, and then analyzes the light scattering pattern according to Mie Theory to determine the particle diameter distribution. […] An example of the measurement condition is as follows, which was used in Evaluation 1 of the present invention.
• Apparatus: Laser diffraction-based particle size distribution analyzer Mastersizer 2000 (Malvern) • Dry measurement unit: Scircco 2000 • Refractive Index of Samples: Real part; 1.810, Imaginary part; 0 • Time for Sample Measurement: 1 second • Time for Background Measurement: 5 seconds • Pressure: 2.0 bar • Feed Rate: 40% • Analysis Model: Single narrow mode • Calculation Sensitivity Enhanced • Particle Shape Irregular • Analysis Range: 0.020 to 2000 μm • Basis of Size Distribution Measurement: Volume
The particle diameter distribution of the subject compound was measured by dry measurement using a particle size distribution analyzer (Mastersizer 2000, manufactured by Malvern). D50 and D90 were calculated as an index of the particle diameter distribution.

[3] = Storage stability (2): total amount of related substances by HPLC, 60° C./75% RH opened
Experimental: For comparison of storage stability, the ground pharmaceutical active substance of Comparative Example 4 (grinding for 3 min), Comparative Example 5 (grinding for 6 min) and Comparative Example 6 (grinding for 7 min), all of which were ground with Table Ball Mill (model V-2M: manufactured by Irie Shokai), were left under the storage condition of 60° C./75% RH opened, and the total amount of related substances was analyzed by HPLC 0.5 and 2 months after the start of the storage (Table 7).

[4] = Storage stability (1): content of pharmaceutical active substance by HPLC, 60° C./75% RH opened
Experimental: For comparison of storage stability, the ground pharmaceutical active substance of Example 6 (crystallinity 88%) which was ground with a jet mill pulverizer Co-jet (α-mkII: manufactured by Seishin Enterprise) and that of Comparative Example 7 (crystallinity 73%) which was ground with a mortar and pestle were left under the storage condition of 60° C./75% RH opened, and the content of the pharmaceutical active substance was analyzed by HPLC 0.5 and 2 months after the start of the storage (Table 6).

[5] = 60° C./75% RH opened, 0.5-Month Later
[6] = 60° C./75% RH opened, 2-Month Later

Row | Compound | Degree of Crystallinity [1] [%] | Particle Diameter Distribution D50 [2] [μm] | Particle Diameter Distribution D90 [2] | other results
1 | O=C1c2ccccc2C(=O)N1[C@@H]1CC[C@@]2(O)[C@H]3Cc4ccc(O)c5c4[C@@]2(CCN3CC2CC2)[C@H]1O5 [Example 5, N-(17-cyclopropylmethyl-4,5α-epoxy-3,14-dihydroxy-morphinan-6β-yl)-phthalimide] | 90 | 7.83 | 16.0 μm | –
2 | O=C1c2ccccc2C(=O)N1[C@@H]1CC[C@@]2(O)[C@H]3Cc4ccc(O)c5c4[C@@]2(CCN3CC2CC2)[C@H]1O5 [Comparative Example 5, N-(17-cyclopropylmethyl-4,5α-epoxy-3,14-dihydroxy-morphinan-6β-yl)-phthalimide] | 71 | 19.2 | 246 μm | Total Amount of Related Substances [3, 5]: 0.61%; Total Amount of Related Substances [3, 6]: 1.07%; Total Amount of Related Substances ([3]; At Start of Storage): 0.24%
3 | O=C1c2ccccc2C(=O)N1[C@@H]1CC[C@@]2(O)[C@H]3Cc4ccc(O)c5c4[C@@]2(CCN3CC2CC2)[C@H]1O5 [Example 4, N-(17-cyclopropylmethyl-4,5α-epoxy-3,14-dihydroxy-morphinan-6β-yl)-phthalimide] | 96 | 14.6 | 47.8 μm | Cumulative Frequency of Volume Distribution Which Is Occupied by Particles with Volume-Based Particle Diameter 15 (μm) or Less [2]: 51.7%
4 | O=C1c2ccccc2C(=O)N1[C@@H]1CC[C@@]2(O)[C@H]3Cc4ccc(O)c5c4[C@@]2(CCN3CC2CC2)[C@H]1O5 [Example 7, N-(17-cyclopropylmethyl-4,5α-epoxy-3,14-dihydroxy-morphinan-6β-yl)-phthalimide] | 87 | 5.67 | 16.1 μm | –
5 | O=C1c2ccccc2C(=O)N1[C@@H]1CC[C@@]2(O)[C@H]3Cc4ccc(O)c5c4[C@@]2(CCN3CC2CC2)[C@H]1O5 [Example 6, N-(17-cyclopropylmethyl-4,5α-epoxy-3,14-dihydroxy-morphinan-6β-yl)-phthalimide] | – | 5.13 | 11.2 μm | Content of Pharmaceutical Active Substance by HPLC [4, 5]: 99.15%; Degree of Decrease Based on Start of Storage [4, 5]: 1.39; Content of Pharmaceutical Active Substance by HPLC [4, 6]: 99.09%; Degree of Decrease Based on Start of Storage [4, 6]: 1.49; Content of Pharmaceutical Active Substance by HPLC ([4]; At Start of Storage): 99.39%
6 | O=C1c2ccccc2C(=O)N1[C@@H]1CC[C@@]2(O)[C@H]3Cc4ccc(O)c5c4[C@@]2(CCN3CC2CC2)[C@H]1O5 [Comparative Example 4, N-(17-cyclopropylmethyl-4,5α-epoxy-3,14-dihydroxy-morphinan-6β-yl)-phthalimide] | 82 | 17.1 | 168 μm | Total Amount of Related Substances [3, 5]: 0.38%; Total Amount of Related Substances ([3]; At Start of Storage): 0.23%
7 | O=C1c2ccccc2C(=O)N1[C@@H]1CC[C@@]2(O)[C@H]3Cc4ccc(O)c5c4[C@@]2(CCN3CC2CC2)[C@H]1O5 [Example 3, N-(17-cyclopropylmethyl-4,5α-epoxy-3,14-dihydroxy-morphinan-6β-yl)-phthalimide] | 94 | 9.89 | 29.4 μm and 28.4 μm | Cumulative Frequency of Volume Distribution Which Is Occupied by Particles with Volume-Based Particle Diameter 15 (μm) or Less [2]: 70.8%
8 | O=C1c2ccccc2C(=O)N1[C@@H]1CC[C@@]2(O)[C@H]3Cc4ccc(O)c5c4[C@@]2(CCN3CC2CC2)[C@H]1O5 [Example 9, N-(17-cyclopropylmethyl-4,5α-epoxy-3,14-dihydroxy-morphinan-6β-yl)-phthalimide] | 89 | 11.5 | 30.9 μm | –
9 | O=C1c2ccccc2C(=O)N1[C@@H]1CC[C@@]2(O)[C@H]3Cc4ccc(O)c5c4[C@@]2(CCN3CC2CC2)[C@H]1O5 [Comparative Example 7, N-(17-cyclopropylmethyl-4,5α-epoxy-3,14-dihydroxy-morphinan-6β-yl)-phthalimide] | – | – | – | Content of Pharmaceutical Active Substance by HPLC [4, 5]: 98.85%; Degree of Decrease Based on Start of Storage [4, 5]: 1.64; Content of Pharmaceutical Active Substance by HPLC [4, 6]: 98.51%; Degree of Decrease Based on Start of Storage [4, 6]: 2.13; Content of Pharmaceutical Active Substance by HPLC ([4]; At Start of Storage): 99.30%
10 | O=C1c2ccccc2C(=O)N1[C@@H]1CC[C@@]2(O)[C@H]3Cc4ccc(O)c5c4[C@@]2(CCN3CC2CC2)[C@H]1O5 [Example 1, N-(17-cyclopropylmethyl-4,5α-epoxy-3,14-dihydroxy-morphinan-6β-yl)-phthalimide] | 89 | 4.25 | 9.14 μm | –
11 | O=C1c2ccccc2C(=O)N1[C@@H]1CC[C@@]2(O)[C@H]3Cc4ccc(O)c5c4[C@@]2(CCN3CC2CC2)[C@H]1O5 [Comparative Example 1, N-(17-cyclopropylmethyl-4,5α-epoxy-3,14-dihydroxy-morphinan-6β-yl)-phthalimide] | 97 | 32.4 | 110 μm | Cumulative Frequency of Volume Distribution Which Is Occupied by Particles with Volume-Based Particle Diameter 15 (μm) or Less [2]: 23.3%
12 | O=C1c2ccccc2C(=O)N1[C@@H]1CC[C@@]2(O)[C@H]3Cc4ccc(O)c5c4[C@@]2(CCN3CC2CC2)[C@H]1O5 [Example 8, N-(17-cyclopropylmethyl-4,5α-epoxy-3,14-dihydroxy-morphinan-6β-yl)-phthalimide] | 92 | 11.8 | 35.3 μm | –
13 | O=C1c2ccccc2C(=O)N1[C@@H]1CC[C@@]2(O)[C@H]3Cc4ccc(O)c5c4[C@@]2(CCN3CC2CC2)[C@H]1O5 [Comparative Example 3, N-(17-cyclopropylmethyl-4,5α-epoxy-3,14-dihydroxy-morphinan-6β-yl)-phthalimide] | – | – | – | crystalline state by powder X-ray diffraction ([1]; Eight hours after grinding with ball mill): converted into an amorphous material
